Experiments:
Assay in all cases: biochemical
Format in all cases: biochemical
382 unique human kinases [1] = target: T1, 382 unique human kinases (Homo sapiens, UniProt Q9UKI8); conditions: TLK1, 10 uM; for remaining activity at 10 µM: read-out: % Enzyme Activity (relative to DMSO controls)
T1 construct: purchased Reaction Biology (HotSpot contract assay)
T1 sequence (Q9UKI8 1-766): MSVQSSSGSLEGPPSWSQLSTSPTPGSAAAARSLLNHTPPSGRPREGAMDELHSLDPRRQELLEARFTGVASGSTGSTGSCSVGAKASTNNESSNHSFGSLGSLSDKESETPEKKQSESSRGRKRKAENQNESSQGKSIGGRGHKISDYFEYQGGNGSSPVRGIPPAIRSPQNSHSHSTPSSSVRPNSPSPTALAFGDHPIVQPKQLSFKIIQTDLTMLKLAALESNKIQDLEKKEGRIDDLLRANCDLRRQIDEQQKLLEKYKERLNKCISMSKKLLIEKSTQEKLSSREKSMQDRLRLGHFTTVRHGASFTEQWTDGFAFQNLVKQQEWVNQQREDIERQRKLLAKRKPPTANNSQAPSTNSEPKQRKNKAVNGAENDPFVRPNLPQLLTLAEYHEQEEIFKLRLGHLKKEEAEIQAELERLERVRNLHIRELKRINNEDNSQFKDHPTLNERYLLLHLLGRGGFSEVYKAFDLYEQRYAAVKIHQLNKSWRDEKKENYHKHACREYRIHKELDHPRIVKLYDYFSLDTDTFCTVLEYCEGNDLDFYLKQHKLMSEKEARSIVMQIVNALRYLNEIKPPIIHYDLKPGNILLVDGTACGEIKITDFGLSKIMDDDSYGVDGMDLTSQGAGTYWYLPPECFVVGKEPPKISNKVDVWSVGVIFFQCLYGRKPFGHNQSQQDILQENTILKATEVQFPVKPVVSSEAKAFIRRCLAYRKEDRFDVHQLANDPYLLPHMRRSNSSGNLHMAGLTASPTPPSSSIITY

382 unique human kinases [2] = target: T2, 382 unique human kinases (Homo sapiens, UniProt P78362); conditions: kinase SRPK2, compound 10 uM; for remaining activity at 10 µM: read-out: % Enzyme Activity (relative to DMSO controls)
T2 construct: purchased Reaction Biology (HotSpot contract assay)
T2 sequence (P78362 whole entry): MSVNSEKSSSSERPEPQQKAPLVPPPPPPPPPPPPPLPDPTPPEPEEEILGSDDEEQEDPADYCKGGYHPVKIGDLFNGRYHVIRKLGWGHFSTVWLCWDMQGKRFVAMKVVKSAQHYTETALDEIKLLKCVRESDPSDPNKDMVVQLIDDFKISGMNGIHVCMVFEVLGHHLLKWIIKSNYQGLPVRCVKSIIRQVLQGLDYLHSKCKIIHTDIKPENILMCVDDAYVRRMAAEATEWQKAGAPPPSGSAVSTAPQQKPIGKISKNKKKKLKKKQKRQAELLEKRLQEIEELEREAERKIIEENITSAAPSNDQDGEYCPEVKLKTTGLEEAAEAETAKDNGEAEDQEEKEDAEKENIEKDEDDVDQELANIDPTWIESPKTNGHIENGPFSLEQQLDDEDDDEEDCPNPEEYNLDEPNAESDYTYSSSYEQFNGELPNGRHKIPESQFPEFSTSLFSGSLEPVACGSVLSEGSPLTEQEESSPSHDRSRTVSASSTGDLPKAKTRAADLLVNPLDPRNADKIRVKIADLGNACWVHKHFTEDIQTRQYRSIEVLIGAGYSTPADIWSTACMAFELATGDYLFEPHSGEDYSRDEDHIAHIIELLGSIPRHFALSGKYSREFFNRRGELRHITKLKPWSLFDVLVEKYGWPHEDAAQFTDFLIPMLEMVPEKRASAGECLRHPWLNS

382 unique human kinases [3] = target: T3, 382 unique human kinases (Homo sapiens, UniProt P29376); conditions: TYK1/LTK, 10 uM; for remaining activity at 10 µM: read-out: % Enzyme Activity (relative to DMSO controls)
T3 construct: purchased Reaction Biology (HotSpot contract assay)
T3 sequence (P29376 17-864): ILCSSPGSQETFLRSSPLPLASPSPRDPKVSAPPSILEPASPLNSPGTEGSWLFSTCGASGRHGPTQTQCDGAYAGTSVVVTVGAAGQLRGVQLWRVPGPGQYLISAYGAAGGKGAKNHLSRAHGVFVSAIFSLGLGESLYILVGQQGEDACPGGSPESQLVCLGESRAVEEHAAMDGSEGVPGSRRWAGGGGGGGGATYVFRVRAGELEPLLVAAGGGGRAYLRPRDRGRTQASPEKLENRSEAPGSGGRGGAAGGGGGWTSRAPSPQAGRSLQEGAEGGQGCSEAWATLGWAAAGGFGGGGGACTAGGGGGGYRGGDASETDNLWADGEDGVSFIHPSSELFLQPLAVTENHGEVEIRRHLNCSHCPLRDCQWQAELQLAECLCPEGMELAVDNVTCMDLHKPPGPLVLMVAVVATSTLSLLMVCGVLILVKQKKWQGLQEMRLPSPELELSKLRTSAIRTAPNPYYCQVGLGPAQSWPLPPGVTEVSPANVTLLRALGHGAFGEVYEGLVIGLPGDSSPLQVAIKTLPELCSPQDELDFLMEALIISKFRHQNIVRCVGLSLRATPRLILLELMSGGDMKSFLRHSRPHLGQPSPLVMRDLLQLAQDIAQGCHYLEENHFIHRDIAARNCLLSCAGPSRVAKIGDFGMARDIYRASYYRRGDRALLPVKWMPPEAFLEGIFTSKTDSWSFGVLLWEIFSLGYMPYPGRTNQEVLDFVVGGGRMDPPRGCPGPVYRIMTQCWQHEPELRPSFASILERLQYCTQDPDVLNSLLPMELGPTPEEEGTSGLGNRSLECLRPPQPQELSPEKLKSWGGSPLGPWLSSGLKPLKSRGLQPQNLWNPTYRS

382 unique human kinases [4] = target: T4, 382 unique human kinases (Homo sapiens, UniProt P46734); conditions: MEK3, 10 uM; for remaining activity at 10 µM: read-out: % Enzyme Activity (relative to DMSO controls)
T4 construct: purchased Reaction Biology (HotSpot contract assay)
T4 sequence (P46734 1-347): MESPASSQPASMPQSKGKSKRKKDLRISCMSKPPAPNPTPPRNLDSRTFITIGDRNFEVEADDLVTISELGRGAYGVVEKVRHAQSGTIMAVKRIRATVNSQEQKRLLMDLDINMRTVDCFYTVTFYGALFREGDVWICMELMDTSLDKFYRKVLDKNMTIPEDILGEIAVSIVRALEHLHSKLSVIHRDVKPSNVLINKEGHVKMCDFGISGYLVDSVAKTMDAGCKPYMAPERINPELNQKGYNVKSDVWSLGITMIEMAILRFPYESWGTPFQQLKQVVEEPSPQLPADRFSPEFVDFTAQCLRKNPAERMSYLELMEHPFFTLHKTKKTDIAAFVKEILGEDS

382 unique human kinases [5] = target: T5, 382 unique human kinases (Homo sapiens, UniProt P51812, L608F); conditions: RSK2 (L608F), [ATP] 10 µM, compound 10 uM; for remaining activity at 10 µM: read-out: % Enzyme Activity (relative to DMSO controls)
T5 construct: purchased Reaction Biology (HotSpot contract assay)
T5 sequence (P51812 whole entry L608F): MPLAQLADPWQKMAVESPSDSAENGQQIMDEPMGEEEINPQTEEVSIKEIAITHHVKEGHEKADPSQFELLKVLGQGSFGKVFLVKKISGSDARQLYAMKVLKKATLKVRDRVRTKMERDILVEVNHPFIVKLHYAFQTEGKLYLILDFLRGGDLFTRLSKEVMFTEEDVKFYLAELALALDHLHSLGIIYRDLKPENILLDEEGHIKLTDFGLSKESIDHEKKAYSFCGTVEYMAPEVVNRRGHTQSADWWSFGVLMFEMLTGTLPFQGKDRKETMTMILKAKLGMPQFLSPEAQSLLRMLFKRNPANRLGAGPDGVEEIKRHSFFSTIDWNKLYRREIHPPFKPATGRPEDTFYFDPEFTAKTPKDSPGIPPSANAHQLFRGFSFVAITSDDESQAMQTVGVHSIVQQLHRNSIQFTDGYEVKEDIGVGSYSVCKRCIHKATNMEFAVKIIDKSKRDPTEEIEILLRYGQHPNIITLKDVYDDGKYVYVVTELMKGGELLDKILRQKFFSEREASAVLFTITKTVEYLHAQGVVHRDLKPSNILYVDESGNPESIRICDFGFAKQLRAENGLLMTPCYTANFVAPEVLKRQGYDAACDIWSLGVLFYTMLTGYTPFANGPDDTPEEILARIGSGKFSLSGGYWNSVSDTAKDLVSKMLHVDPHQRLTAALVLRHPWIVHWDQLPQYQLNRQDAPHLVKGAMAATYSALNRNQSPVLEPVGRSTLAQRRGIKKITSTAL

382 unique human kinases [6] = target: T6, 382 unique human kinases (Homo sapiens, UniProt O95835); conditions: LATS1, 10 uM; for remaining activity at 10 µM: read-out: % Enzyme Activity (relative to DMSO controls)
T6 construct: purchased Reaction Biology (HotSpot contract assay)
T6 sequence (O95835 1-1130): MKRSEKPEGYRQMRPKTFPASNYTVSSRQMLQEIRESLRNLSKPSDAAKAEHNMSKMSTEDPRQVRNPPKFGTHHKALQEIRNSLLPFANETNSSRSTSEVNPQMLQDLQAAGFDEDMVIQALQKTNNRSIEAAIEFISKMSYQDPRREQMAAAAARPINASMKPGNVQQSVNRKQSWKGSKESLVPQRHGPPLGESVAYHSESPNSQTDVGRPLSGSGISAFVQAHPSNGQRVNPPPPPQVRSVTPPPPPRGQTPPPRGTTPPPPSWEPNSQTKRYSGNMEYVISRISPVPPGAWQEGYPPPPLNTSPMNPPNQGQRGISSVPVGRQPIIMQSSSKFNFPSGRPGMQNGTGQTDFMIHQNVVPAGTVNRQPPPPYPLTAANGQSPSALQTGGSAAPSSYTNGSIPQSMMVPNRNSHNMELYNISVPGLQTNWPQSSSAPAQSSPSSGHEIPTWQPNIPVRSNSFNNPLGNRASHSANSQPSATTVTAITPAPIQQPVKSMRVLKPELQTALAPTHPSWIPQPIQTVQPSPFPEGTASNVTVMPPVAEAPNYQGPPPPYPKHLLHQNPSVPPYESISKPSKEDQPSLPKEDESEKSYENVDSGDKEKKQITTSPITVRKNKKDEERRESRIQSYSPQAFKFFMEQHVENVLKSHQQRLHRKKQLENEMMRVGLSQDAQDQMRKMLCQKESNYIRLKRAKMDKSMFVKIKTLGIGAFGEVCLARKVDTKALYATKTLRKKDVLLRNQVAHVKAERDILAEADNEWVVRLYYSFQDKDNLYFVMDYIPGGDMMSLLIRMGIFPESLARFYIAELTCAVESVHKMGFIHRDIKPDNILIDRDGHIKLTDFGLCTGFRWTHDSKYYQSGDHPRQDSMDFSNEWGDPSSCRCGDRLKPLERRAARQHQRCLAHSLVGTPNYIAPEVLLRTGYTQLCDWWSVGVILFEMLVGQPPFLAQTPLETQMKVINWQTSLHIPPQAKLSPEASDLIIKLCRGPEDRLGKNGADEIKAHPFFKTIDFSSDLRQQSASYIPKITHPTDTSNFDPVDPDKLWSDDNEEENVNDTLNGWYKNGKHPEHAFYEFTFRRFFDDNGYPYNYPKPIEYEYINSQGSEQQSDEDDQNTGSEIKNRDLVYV

Row | SMILES | remaining activity at 10 µM (382 unique human kinases [1]) | remaining activity at 10 µM (382 unique human kinases [2]) | remaining activity at 10 µM (382 unique human kinases [3]) | remaining activity at 10 µM (382 unique human kinases [4]) | remaining activity at 10 µM (382 unique human kinases [5]) | remaining activity at 10 µM (382 unique human kinases [6]) | % Enzyme Activity (relative to DMSO controls) (382 unique human kinases [1]) | % Enzyme Activity (relative to DMSO controls) (382 unique human kinases [2]) | % Enzyme Activity (relative to DMSO controls) (382 unique human kinases [3]) | % Enzyme Activity (relative to DMSO controls) (382 unique human kinases [4]) | % Enzyme Activity (relative to DMSO controls) (382 unique human kinases [5]) | % Enzyme Activity (relative to DMSO controls) (382 unique human kinases [6])
1 | CC(C)c1cc(-c2n[nH]c(=O)n2-c2ccc3c(ccn3C)c2)c(O)cc1O [Ganetespib (STA9090)] | 65.8% | 89.8% | 73.6% | – | – | – | – | – | – | – | – | –
2 | CC(C)c1cc(-c2n[nH]c(=O)n2-c2ccc3c(ccn3C)c2)c(O)cc1O [Ganetespib] | – | – | – | 103% | 52.5% | 95.5% | – | – | – | – | – | –
3 | CCNC(=O)c1noc(-c2cc(C(C)C)c(O)cc2O)c1-c1ccc(CN2CCOCC2)cc1 [Luminespib (AUY-922)] | 86.2% | 99.5% | 98.2% | – | – | – | 84.15% | 97.52% | 97.76% | – | – | –
4 | CCNC(=O)c1noc(-c2cc(C(C)C)c(O)cc2O)c1-c1ccc(CN2CCOCC2)cc1 [Luminespib] | – | – | – | 96.8% | 108% | 98.6% | – | – | – | 95.40% | 105.75% | 98.44%

From PMC8550792, “Evolution of kinase polypharmacology across HSP90 drug discovery” (Cell Chemical Biology, 2021)
